This note sets out measurements from ChEMBL document CHEMBL1124616, “Hybrid cholecystokinin (CCK) antagonists: new implications in the design and modification of CCK antagonists” (J Med Chem, 1989).

Broadly, the IC50 is the point on the concentration scale where inhibition reaches its midpoint. A high value points to a need for much substance.

The target of assay [1] is T1, Cholecystokinin receptor type A (Cavia porcellus, UniProt Q63931).
T1 sequence (Q63931 whole entry): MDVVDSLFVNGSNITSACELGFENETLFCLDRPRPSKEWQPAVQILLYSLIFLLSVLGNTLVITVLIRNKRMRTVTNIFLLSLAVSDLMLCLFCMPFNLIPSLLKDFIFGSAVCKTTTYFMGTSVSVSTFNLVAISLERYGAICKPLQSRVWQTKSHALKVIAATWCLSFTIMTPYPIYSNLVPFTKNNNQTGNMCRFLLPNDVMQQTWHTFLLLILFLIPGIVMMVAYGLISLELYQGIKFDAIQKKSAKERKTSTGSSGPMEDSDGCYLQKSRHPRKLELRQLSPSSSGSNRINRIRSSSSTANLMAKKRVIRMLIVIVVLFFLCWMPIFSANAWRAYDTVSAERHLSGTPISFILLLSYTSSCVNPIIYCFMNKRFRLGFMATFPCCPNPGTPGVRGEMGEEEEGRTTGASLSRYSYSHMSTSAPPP
Briefly: Compound was evaluated for the binding affinity against Cholecystokinin type A receptor in pancreatic acinar cell.

The species named for the next assay is Cavia porcellus. Briefly: Compound was evaluated for the ability to inhibit CCK-stimulated amylase release in pancreatic acinar cells of guinea pig. In kind it is functional.
Assay [2] concerns the target T2, Gastrin/cholecystokinin type B receptor (Cavia porcellus, UniProt H0VZC5). Nature of the assay: Compound was evaluated for the binding affinity against Cholecystokinin type A receptor in cortical cells. In kind it is cell-based.
The target of assay [3] is T1, Cholecystokinin receptor type A. Nature of the assay: Compound was evaluated for the binding affinity against CCK A receptor in pancreatic acinar cell.
In assay [4] the target is T2, Gastrin/cholecystokinin type B receptor. Nature of the assay: Compound was evaluated for the binding affinity against CCK A receptor in cortical cells. In kind it is cell-based.

T2 sequence (H0VZC5 1-426): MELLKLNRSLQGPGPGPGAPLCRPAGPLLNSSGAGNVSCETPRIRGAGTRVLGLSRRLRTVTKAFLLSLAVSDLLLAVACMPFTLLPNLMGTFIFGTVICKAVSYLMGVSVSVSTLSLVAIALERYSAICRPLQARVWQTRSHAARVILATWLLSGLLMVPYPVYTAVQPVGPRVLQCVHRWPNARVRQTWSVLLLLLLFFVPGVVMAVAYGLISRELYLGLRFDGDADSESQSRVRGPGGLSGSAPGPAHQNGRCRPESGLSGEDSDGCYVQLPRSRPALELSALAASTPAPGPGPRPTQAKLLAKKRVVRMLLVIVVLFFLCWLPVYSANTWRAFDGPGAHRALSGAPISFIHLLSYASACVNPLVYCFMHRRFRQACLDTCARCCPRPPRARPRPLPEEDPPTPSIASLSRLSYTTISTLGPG

Turning to `CCCCCN(CCCCC)C(=O)[C@@H](CCC(=O)O)NC(=O)c1cccc2ccccc12`, the IC50 in assay [1] is 320 nM; in the assay filed under Cavia porcellus, 280 nM; in assay [2], 11000 nM.
`CCCCCN(CCCCC)C(=O)[C@@H](CCC(=O)O)NC(=O)c1cc2ccccc2[nH]1`: in the assay filed under Cavia porcellus, half-maximal inhibition (IC50) was put at 36 nM.
Same read-out and setting: under `CCCCCN(CCCCC)C(=O)[C@@H](CCC(=O)O)NC(=O)c1cnc2ccccc2c1` stands 16 nM.
On to `CCCCCN(CCCCC)C(=O)[C@@H](CCC(=O)O)NC(=O)c1ccc2ccccc2n1`, for which, in assay [1], the IC50 came to 63 nM.
Turning to `CCCCCN(CCCCC)C(=O)[C@H](CCC(=O)O)NC(=O)c1cc2ccccc2[nH]1`, in the assay filed under Cavia porcellus, the IC50 turned out to be 590 nM. That is a sub-micromolar value.
In the case of `CCCCCN(CCCCC)C(=O)[C@H](CCC(=O)O)NC(=O)c1ccc(Cl)c(Cl)c1`, the figures for the IC50 (in assay [3]; in the assay listed under Cavia porcellus) were 4900 nM and 11000 nM, respectively.
On to `CCCCCN(CCCCC)C(=O)[C@@H](CCC(=O)O)NC(=O)c1c[nH]c2ccccc12`, for which the 50% inhibitory concentration (IC50) in the assay filed under Cavia porcellus was found to be 830 nM; in assay [2], 32000 nM.
For `CCCCCN(CCCCC)C(=O)[C@@H](CCC(=O)O)NC(=O)c1ccc2ncccc2c1`, the IC50 is 11000 nM in assay [4], 31 nM in assay [3] and 65 nM in the assay filed under Cavia porcellus.
As for `CCCCCN(CCCCC)C(=O)[C@@H](CCC(=O)O)NC(=O)c1ccc(Cl)c(Cl)c1`, the IC50 in the assay filed under Cavia porcellus turned out to be 180 nM. This counts as sub-micromolar.
On to `CCCCCN(CCCCC)C(=O)[C@@H](CCC(=O)O)NC(=O)c1ccc2ccccc2c1` [AMIGLUMIDE], for which the IC50 was 12 nM in assay [1], 36 nM in the assay filed under Cavia porcellus and 4200 nM in assay [2].
